Experimental findings from ChEMBL document CHEMBL1131901, “Synthesis and opiate receptor binding properties of 17-methyl-6,7-dehydro-3,14-dihydroxy-4,5alpha-epoxy-6,7:4',5'-pyrimidin omorphinans” (Bioorg Med Chem Lett, 1999) are described below.

The target of assay [1] is T1, Mu-type opioid receptor (Homo sapiens, UniProt P35372). The experiment in a line: Agonistic activity against human opioid Mu receptor transfected into Chinese hamster ovary (CHO) cells using [3H]DAMGO as radioligand. The format is functional, cell-based.
T1 sequence (P35372 whole entry): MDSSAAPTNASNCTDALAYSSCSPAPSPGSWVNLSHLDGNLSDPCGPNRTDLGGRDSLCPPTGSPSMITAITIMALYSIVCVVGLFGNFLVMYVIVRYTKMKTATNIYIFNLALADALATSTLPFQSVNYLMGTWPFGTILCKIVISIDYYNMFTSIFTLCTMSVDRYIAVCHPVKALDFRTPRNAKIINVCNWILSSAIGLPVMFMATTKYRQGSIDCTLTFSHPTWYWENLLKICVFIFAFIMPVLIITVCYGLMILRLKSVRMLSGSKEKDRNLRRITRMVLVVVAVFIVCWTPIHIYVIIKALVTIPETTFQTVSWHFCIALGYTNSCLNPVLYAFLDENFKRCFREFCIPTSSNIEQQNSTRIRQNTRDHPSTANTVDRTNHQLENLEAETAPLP
For assay [2], the target named is T2, Kappa-type opioid receptor (Homo sapiens, UniProt P41145). Description: (§1) Agonistic activity against human opioid Kappa receptor transfected into Chinese hamster ovary (CHO) cells using [3H]U-69593 as radioligand. It counts as functional, cell-based.
T2 sequence (P41145 whole entry): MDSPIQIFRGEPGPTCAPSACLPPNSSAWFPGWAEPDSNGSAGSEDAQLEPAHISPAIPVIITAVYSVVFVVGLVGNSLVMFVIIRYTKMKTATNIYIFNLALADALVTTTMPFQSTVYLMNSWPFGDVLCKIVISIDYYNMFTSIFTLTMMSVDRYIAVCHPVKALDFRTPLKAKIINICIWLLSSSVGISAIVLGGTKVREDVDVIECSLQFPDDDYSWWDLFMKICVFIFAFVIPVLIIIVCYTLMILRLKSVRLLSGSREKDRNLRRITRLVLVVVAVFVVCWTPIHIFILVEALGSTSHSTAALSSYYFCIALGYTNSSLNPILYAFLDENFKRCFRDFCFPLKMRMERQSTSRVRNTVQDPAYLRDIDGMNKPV
Assay [3] concerns the target T3, Delta-type opioid receptor (Homo sapiens, UniProt P41143). The experiment in a line: (§2) Agonistic activity against human opioid Delta receptor transfected into Chinese hamster ovary (CHO) cells using [3H]Cl-DPDPE as radioligand. It counts as functional, cell-based.
The target of assay [4] is T2, Kappa-type opioid receptor. Description: Binding affinity towards human opioid Kappa receptor transfected into Chinese hamster ovary (CHO) cells using [3H]U-69593 as radioligand. The format is cell-based.
The target of assay [5] is T1, Mu-type opioid receptor. Description: Agonistic activity against human opioid Mu receptor transfected into Chinese hamster ovary (CHO) cells using [3H]-DAMGO as radioligand. It counts as functional, cell-based.
Assay [6] deals with T1, Mu-type opioid receptor. The experiment in a line: Binding affinity towards human opioid Mu receptor transfected into Chinese hamster ovary (CHO) cells using [3H]DAMGO as radioligand. The format is cell-based.
The target in assay [7] is T2, Kappa-type opioid receptor. Described as §1. It counts as functional, cell-based. The source holds these as a separate data set.
Assay [8] addresses T3, Delta-type opioid receptor. The description is as §2. The format is functional, cell-based. This is another data set of the same source.
Assay [9] concerns the target T3, Delta-type opioid receptor. Description: Binding affinity towards human opioid Delta receptor transfected into Chinese hamster ovary (CHO) cells using [3H]Cl-DPDPE as radioligand. The format is cell-based.
The target in assay [10] is T1, Mu-type opioid receptor. Described as §2. It counts as functional, cell-based.
For assay [11], the target named is T2, Kappa-type opioid receptor. To be noted: CHO.
Description: Antagonistic activity against human opioid Kappa receptor transfected into Chinese hamster ovary (CHO) cells using [3H]U-69593 as radioligand

Molecules are shown by their SMILES.

T3 sequence (P41143 whole entry): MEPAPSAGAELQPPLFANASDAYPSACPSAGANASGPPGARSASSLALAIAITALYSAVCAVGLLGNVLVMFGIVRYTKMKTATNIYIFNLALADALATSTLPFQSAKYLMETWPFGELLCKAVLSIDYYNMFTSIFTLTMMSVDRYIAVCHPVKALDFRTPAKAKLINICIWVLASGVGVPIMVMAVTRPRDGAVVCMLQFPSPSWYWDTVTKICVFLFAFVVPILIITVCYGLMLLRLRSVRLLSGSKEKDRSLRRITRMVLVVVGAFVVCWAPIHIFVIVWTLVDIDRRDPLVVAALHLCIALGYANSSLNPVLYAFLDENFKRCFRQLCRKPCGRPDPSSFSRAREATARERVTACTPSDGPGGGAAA

Turning to `CN1CCC23c4c5ccc(O)c4OC2c2nc(O)ncc2CC3(O)C1C5` (centres undefined), the Stimulation turned out to be 87.7% at Mu-type opioid receptor [1], 40.7% in assay [2] and 97% in assay [3].
In the case of `CN1CCC23c4c5ccc(O)c4OC2c2[nH]c(=O)ncc2CC3(O)C1C5` (centres undefined), the inhibition constant (Ki) is 12.3 nM in assay [4], 3.75 nM on Mu-type opioid receptor [6] and 19.1 nM in assay [9]. For the same compound, the half-maximal effective concentration (EC50) at Mu-type opioid receptor [5] turned out to be 110 nM; in assay [7], 1020 nM; in assay [8], 61.5 nM.
As to `Cc1ncc2c(n1)C1Oc3c(O)ccc4c3C13CCN(C)C(C4)C3(O)C2` (centres undefined), the results for the Ki (in assay [4]; at Mu-type opioid receptor [6]; in assay [9]) were 68.5 nM, 5.26 nM and 24 nM, respectively. The Stimulation at Mu-type opioid receptor [1] is 109%; in [2] it was 97%; in assay [3] it was 60%. For the same compound, the values for the EC50 (on Mu-type opioid receptor [5]; in assay [7]; in [8]) were 71.9 nM, 2730 nM and 95.9 nM, respectively.
For `CN1CCC23c4c5ccc(O)c4OC2c2nc(N)ncc2CC3(O)C1C5` (centres undefined), the Ki worked out at 21.1 nM in [4], 7.32 nM at Mu-type opioid receptor [6] and 19 nM in assay [9]. Also, the EC50 turned out to be 75.2 nM at Mu-type opioid receptor [5], 1080 nM in assay [7] and 66.1 nM in [8]. Moreover, the Stimulation in assay [2] turned out to be 34.3%; at Mu-type opioid receptor [10], 78.7%.
Regarding `CN1CCC23c4c5ccc(O)c4OC2c2n[nH]cc2CC3(O)C1C5` (centres undefined), the results for the Ki (in assay [4]; at Mu-type opioid receptor [6]; in assay [9]) were 11.9 nM, 1.72 nM and 12.2 nM, respectively. Also, the Stimulation at Mu-type opioid receptor [1] stood at 80.3%; in [2] it was 18.9%; in assay [3], 75.2%. Besides, the results for the EC50 (at Mu-type opioid receptor [5]; in [8]) were 19.3 nM and 25 nM, respectively. The same compound yielded a Ke in assay [11] of 59.3.
`CN1CCC23c4c5ccc(O)c4OC2c2nc(-c4ccccc4)ncc2CC3(O)C1C5` (centres undefined): the Ki in [4] is 45 nM; at Mu-type opioid receptor [6] it was 7.34 nM; in [9], 6.48 nM. Further, the Stimulation at Mu-type opioid receptor [1] amounted to 89.4%; in assay [2], 49.5%; in [3] it was 92.5%. The concentration giving a half-maximal response (EC50) at Mu-type opioid receptor [5] stood at 58.4 nM; in assay [7], 1420 nM; in assay [8] it was 24 nM.

A word on the Ki: it is a measure of affinity in units of concentration, obtained from inhibition or displacement. A high value points to weaker binding. For orientation: EC50 means the concentration at which the effect is half-maximal. Higher therefore signals a need for much substance.
